Assay [1] relates to transgenic soybean plants (Gm cytoplasmic/chloroplastic ALT-1-01, ALT-2-01, ALT-3-01). Nature of the assay: Glyphosate tolerance of transgenic soybean plants (ALT + EPSPS), herbicide damage rate. Format: in vivo. The conditions noted are these: 840 g ae/ha, 1-fold field concentration, 14 days after spraying. The text has this:
(§1) The herbicide tolerance effects of Gm cytoplasmic ALT-1-01 soybean plants, Gm chloroplastic ALT-1-01 soybean plants, Gm cytoplasmic ALT-2-01 soybean plants, Gm chloroplastic ALT-2-01 soybean plants, Gm cytoplasmic ALT-3-01 soybean plants, Gm chloroplastic ALT-3-01 soybean plants and wild-type soybean plants on glyphosate were detected (at seedling stage), respectively.
(§2) 2 strains from Gm cytoplasmic ALT-1-01 soybean plants, Gm chloroplastic ALT-1-01 soybean plants, Gm cytoplasmic ALT-2-01 soybean plants, Gm chloroplastic ALT-2-01 soybean plants, Gm cytoplasmic ALT-3-01 soybean plants, Gm chloroplastic ALT-3-01 soybean plants and wild-type soybean plants were respectively taken each, and 10-15 plants were selected from each strain and tested. The plants above were sprayed with glyphosate (840 g ae/ha, 1-fold field concentration) and a blank solvent (water). The herbicide damage rate was measured for each plant according to the phytotoxicity symptoms 14 days after spraying (14 DAT): herbicide damage rate (%)=Σ(number of damaged plants at the same level×level number)/(total number of plants×highest level).

The subject of assay [2] is wild-type soybean plants (CK1). Nature of the assay: Glyphosate tolerance of wild-type soybean plants, herbicide damage rate. The format is in vivo. The conditions noted are these: 840 g ae/ha, 1-fold field concentration, 14 days after spraying.
Source text: as §1, §2

Structures are written as SMILES.

The source of these data is patent US20190055576A1, “USE OF HERBICIDE-TOLERANT PROTEIN” (BEIJING DABEINONG TECHNOLOGY GROUP CO., LTD., priority 2016, published 2019).

Regarding `O=C(O)CNCP(=O)(O)O` [glyphosate, N-phosphonomethylglycine], the “glyphosate herbicide damage rate” value in assay [1] (Gm chloroplastic ALT-1-01 soybean plants), in assay [1] (Gm chloroplastic ALT-2-01 soybean plants), in assay [1] (Gm chloroplastic ALT-3-01 soybean plants), in assay [1] (Gm cytoplasmic ALT-1-01 soybean plants), in assay [1] (Gm cytoplasmic ALT-2-01 soybean plants) and in assay [1] (Gm cytoplasmic ALT-3-01 soybean plants) was ~0% each time. Further, the “glyphosate herbicide damage rate” value in assay [2] was “not less than 90%”.
